Patent US20220296625A1 (priority 2019, published 2022)
Read-outs that look alike come from different tables or passages of the source.

How the values were obtained:
male C57BL mice [1] = assay: Survival of mice after streptozotocin i.p. with or without oral LPSea (Example 5); assay type: in vivo; conditions: STZ 313 mg/kg i.p.; for Survival rate (%): LPSea 1 mg/kg body weight/day in drinking water
Text: 1) Reagents • LPS (LPSea) derived from Enterobacter asburiae belonging to genus Enterobacter of family Enterobacteriaceae (Macrophi Inc.) • Streptozotocin (STZ) (SAJ-S0130 of Sigma-Aldrich)
(§1) Six-week-old male C57BL mice were used. […] As food, the D12450B diet of Research Diets, Inc. was provided.

male C57BL mice [2] = assay: Survival of mice after streptozotocin i.p. with or without oral LPSp (Example 1); assay type: in vivo; conditions: STZ 250 mg/kg i.p.; for Survival rate (%): LPSp 100 μg/kg body weight/day in drinking water
Description: 1) Reagents • LPS (LPSp) derived from Pantoea agglomerans belonging to genus Pantoea of family Enterobacteriaceae (mac0001 of Macrophi Inc.) • Streptozotocin (STZ) (SAJ-S0130 of Sigma-Aldrich)
as §1
PBS administration group (PBS i.p.): 0.5 mL of phosphate buffer saline (PBS) were injected into the peritoneal cavity of each mouse.

[3] = assay type: in vivo, mice; conditions: for Mice body weights after anticancer agent administration (relative value in % with body weights for saline i.p. being 100): LPSp 1 mg/kg body weight/day in drinking water
Text: (§2) Four-week-old male ICR mice were used.

male ICR mice = assay: Survival of mice after cisplatin i.p. with or without oral LPSp (Example 2); assay type: in vivo; conditions: cisplatin 17.4 mg/kg i.p.; for Survival rate (%): LPSp 1 mg/kg body weight/day in drinking water
Text: as §2

[4] = Body weight of mice after cyclophosphamide i.p. with or without oral LPSp (Example 3); conditions: 11th day and 13th day from administration; Tukey's multiple comparison test
Description: Four-week-old male ICR mice were used. Husbandry of the mice was carried out in a temperature and humidity controlled animal facility under environmental conditions of ad libitum food and water, and 12 hr light/12 hr dark. As food, CE-12 of CLEA Japan, Inc. was provided. After measuring the body weights at the time of delivery, the mice were divided into 3 groups of 6 mice each.
Physiological saline administration group (saline i.p.): 0.5 mL of physiological saline were injected into the peritoneal cavity of each mouse.

## CN(N=O)C(=O)N[C@H]1C(O)O[C@H](CO)[C@@H](O)[C@@H]1O (mixture of isomers) [STZ i.p., Streptozotocin]
Male C57BL mice [1]; by the 4th day from anticancer agent administration, LPSea 1 mg/kg body weight/day
  mice died: 1 out of 6
Male C57BL mice [1]; day 3, 6 mice per group
  Survival rate (%): 100%
Male C57BL mice [1]; day 4
  Survival rate (%): 83.33%
Male C57BL mice [1]; day 8
  Survival rate (%): 83.33%
Male C57BL mice [2]; 5th day
  mice died: 6 out of 6
Male C57BL mice [2]; day 3, 6 mice per group
  Survival rate (%): 66.7%
Male C57BL mice [2]; day 4
  Survival rate (%): 33.3%
Male C57BL mice [2]; day 4.5
  Survival rate (%): 33.3%
Male C57BL mice [2]; day 5
  Survival rate (%): 0.0%
Male C57BL mice [2]; day 9
  Survival rate (%): 0.0%
Male C57BL mice [2]; day 11
  Survival rate (%): 0.0%
Male C57BL mice [2]; day 21
  Survival rate (%): 0.0%
Male C57BL mice [2]; day 29
  Survival rate (%): 0.0%

## O=c1[nH]cc(F)c(=O)[nH]1 [5-FU i.p., 5-fluorouracil]
[3]; 0 day, 5-fluorouracil 360 mg/kg i.p.
  Mice body weights after anticancer agent administration (relative value in % with body weights for saline i.p. being 100): 102.0 ± 2.4%
[3]; 3rd day from anticancer agent administration, 5-fluorouracil 360 mg/kg i.p., Tukey's multiple comparison test
  weight loss in comparison to the physiological saline administration group: significant weight loss
[3]; 6th day, Tukey's multiple comparison test P<0.05
  body weight, comparison of 5-FU i.p. and 5-FU i.p.+LPS groups: significantly low
[3]; 3 day, 5-fluorouracil 360 mg/kg i.p.
  Mice body weights after anticancer agent administration (relative value in % with body weights for saline i.p. being 100): 91.8 ± 4.1 %
[3]; 6 day, 5-fluorouracil 360 mg/kg i.p.
  Mice body weights after anticancer agent administration (relative value in % with body weights for saline i.p. being 100): 94.5 ± 2.6^ %

## N.N.[Cl][Pt][Cl] [CDDP i.p., Cisplatin]
Male ICR mice; 14th day, LPSp 1 mg/kg body weight/day, Kaplan-Meier test P<0.05
  mice survived: 1 out of 6
Male ICR mice; by the 6th day from anticancer agent administration, LPSp 1 mg/kg body weight/day
  mice died: 5 out of 6
Male ICR mice; day 5, 6 mice per group
  Survival rate (%): 50%
Male ICR mice; day 6
  Survival rate (%): 16.7%
Male ICR mice; day 7
  Survival rate (%): 16.7%
Male ICR mice; day 14
  Survival rate (%): 16.7%

## O=P1(N(CCCl)CCCl)NCCCO1 (stereo not shown) [CY i.p., Cyclophosphamide]
[4]
  weight loss in comparison to the physiological saline administration group: significant weight loss
